Literature values, collected in US20130210879A1, “FORMULATIONS OF BENDAMUSTINE” (priority 2012, published 2013).

Cn1c(CCCC(=O)O)nc2cc(N(CCCl)CCCl)ccc21 [Bendamustine]
stability in water: measured in hours
